This note sets out measurements from US20180139962A1, “FUNGICIDAL N-CYCLOALKYL-N-{[ORTHO-(1-SUBSTITUTED-CYCLOALKYL)HETEROARYL]METHYL}PYRAZOLE(THIO)CARBOXAMIDS” (Bayer CropScience Aktiengesellschaft, priority 2015, published 2018).

As a reminder, the logP is a log measure of how a compound divides between an organic and an aqueous phase. What is called chromatographic logP is lipophilicity estimated from chromatographic retention. Higher therefore signals a more lipophilic compound.

SMILES strings stand for the structures. Several values for one entry are separate records, joined by “and”; a condition that tells them apart may be missing. Identical values can stand only once.

The subject of one series is Uromyces appendiculatus. In words: In vivo preventive test on Uromyces appendiculatus (bean rust). The conditions noted are these: Table B2, dose 100 ppm, bean plants, comparison with isopropyl analogues of WO2012/059497. As for the experimental part:
EXAMPLE B: IN VIVO PREVENTIVE TEST ON UROMYCES APPENDICULATUS (BEAN RUST) Solvent: 5% by volume of Dimethyl sulfoxide • 10% by volume of Acetone Emulsifier: 1 μL of Tween® 80 per mg of active ingredient The active ingredients are made soluble and homogenized in a mixture of Dimethyl sulfoxide/Acetone//Tween® 80 and then diluted in water to the desired concentration. The young plants of bean are treated by spraying the active ingredient prepared as described above. Control plants are treated only with an aqueous solution of Acetone/Dimethyl sulfoxide/Tween® 80. After 24 hours, the plants are contaminated by spraying the leaves with an aqueous suspension of Uromyces appendiculatus spores. The contaminated bean plants are incubated for 24 hours at 20° C. and at 100% relative humidity and then for 10 days at 20° C. and at 70-80% relative humidity. The test is evaluated 11 days after the inoculation. 0% means an efficacy which corresponds to that of the control plants while an efficacy of 100% means that no disease is observed.

Series [1] can be described thus: log P determination by HPLC on reversed-phase column (C 18), EEC Directive 79/831 Annex V.A8. Format: physicochemical. The note with it: C 18 reversed phase, 40° C., 0.1% aqueous formic acid and acetonitrile, linear gradient 10% to 90% acetonitrile; for chromatographic logP: reversed-phase C18 HPLC column. The protocol: In table 1, the log P values were determined in accordance with EEC Directive 79/831 Annex V.A8 by HPLC (High Performance Liquid Chromatography) on a reversed-phase column (C 18), using the method described below: Temperature: 40° C.; Mobile phases: 0.1% aqueous formic acid and acetonitrile; linear gradient from 10% acetonitrile to 90% acetonitrile. Calibration was carried out using unbranched alkan-2-ones (comprising 3 to 16 carbon atoms) with known log P values (determination of the log P values by the retention times using linear interpolation between two successive alkanones). lambda-max-values were determined using UV-spectra from 200 nm to 400 nm and the peak values of the chromatographic signals.

The compound `Cc1cc(C(C)C)c(CN(C(=O)c2c(C(F)F)nn(C)c2F)C2CC2)s1` [CMP1, N-cyclopropyl-3-(difluoromethyl)-5-fluoro-N-[(3-isopropyl-5-methyl-2-thienyl)methyl]-1-methyl-1H-pyrazole-4-carboxamide, reference compound] registered an Efficacy in the series with Uromyces appendiculatus of 65%.

`Cc1cc(C(C)C)c(CN(C(=O)c2c(C(F)F)nn(C)c2Cl)C2CC2)s1` [CMP2, 5-chloro-N-cyclopropyl-3-(difluoromethyl)-N-[(3-isopropyl-5-methyl-2-thienyl)methyl]-1-methyl-1H-pyrazole-4-carboxamide, reference compound] showed an Efficacy in the series on Uromyces appendiculatus of 0%.

`Cn1nc(C(F)F)c(C(=O)N(Cc2cccnc2C2(C)CC2)C2CC2)c1F` [I.01] came in with a logP in series [1] of 1.28.

For the compound `Cn1nc(C(F)F)c(C(=O)N(Cc2cccnc2C2(C)CC2)C2CC2)c1Cl` [I.02], the logP in series [1] was 1.41.

`Cn1nc(C(F)F)c(C(=O)N(Cc2cc(Cl)cnc2C2(C)CC2)C2CC2)c1F` [I.03] yielded a logP in series [1] of 2.88.

For `Cn1nc(C(F)F)c(C(=O)N(Cc2cc(Cl)cnc2C2(C)CC2)C2CC2)c1Cl` [I.04], in series [1], the lipophilicity (logP) was determined as 3.09.

As for `Cc1cnc(C2(C)CC2)c(CN(C(=O)c2c(C(F)F)nn(C)c2F)C2CC2)c1` [I.05], the logP in series [1] stood at 1.42.

For `Cc1cnc(C2(C)CC2)c(CN(C(=O)c2c(C(F)F)nn(C)c2Cl)C2CC2)c1` [I.06], the lipophilicity (logP) in series [1] was found to be 1.54. This logP and that of the compound before are within 0.2 log units of each other.

Regarding `Cn1nc(C(F)F)c(C(=O)N(Cc2cc(Br)cnc2C2(C)CC2)C2CC2)c1Cl` [I.07], the logP in series [1] amounted to 3.12.

As for `Cn1nc(C(F)F)c(C(=O)N(Cc2cc(Br)cnc2C2(C)CC2)C2CC2)c1F` [I.08], the logP in series [1] is recorded as 2.91.

On to `Cn1nc(C(F)F)c(C(=O)N(Cc2sccc2C2(C)CC2)C2CC2)c1F` [I.09], for which the logP in series [1] stood at 3.70.

The compound `Cn1nc(C(F)F)c(C(=O)N(Cc2sccc2C2(C)CC2)C2CC2)c1Cl` [I.10] returned a logP in series [1] of 3.85.

In the series on Uromyces appendiculatus, `Cc1cc(C2(C)CC2)c(CN(C(=O)c2c(C(F)F)nn(C)c2F)C2CC2)s1` [I.11] gave an Efficacy of 100%. This compound also showed a lipophilicity (logP) in series [1] of 4.13.

In the case of `Cc1cc(C2(C)CC2)c(CN(C(=O)c2c(C(F)F)nn(C)c2Cl)C2CC2)s1` [I.12], the Efficacy in the series with Uromyces appendiculatus is 100% and 92%. In series [1], this compound came in with a logP of 4.27.

`Cn1nc(C(F)F)c(C(=O)N(Cc2sccc2C2(Cl)CC2)C2CC2)c1F` [I.13]: in series [1], the logP was determined as 3.37.

In series [1], `Cn1nc(C(F)F)c(C(=O)N(Cc2sccc2C2(Cl)CC2)C2CC2)c1Cl` [I.14] gave a lipophilicity (logP) of 3.55. The logP values of the last two compounds are within 0.2 log units of each other.

In series [1], `Cc1cc(C2(Cl)CC2)c(CN(C(=O)c2c(C(F)F)nn(C)c2F)C2CC2)s1` [I.15, N-{[3-(1-chlorocyclopropyl)-5-methyl-2-thienyl]methyl}-N-cyclopropyl-3-(difluoromethyl)-5-fluoro-1-methyl-1H-pyrazole-4-carboxamide] gave a chromatographic logP of 3.76.

`Cc1cc(C2(Cl)CC2)c(CN(C(=O)c2c(C(F)F)nn(C)c2Cl)C2CC2)s1` [I.16] came in with a lipophilicity (logP) in series [1] of 3.92.

Regarding `COC1(c2cc(C)sc2CN(C(=O)c2c(C(F)F)nn(C)c2F)C2CC2)CC1` [I.17], the log partition coefficient (logP) in series [1] was 3.37.

With `Cn1nc(C(F)F)c(C(=O)N(Cc2sc(Br)cc2C2(Cl)CC2)C2CC2)c1F` [I.18], the logP in series [1] is on record as 4.15.

`Cn1nc(C(F)F)c(C(=S)N(Cc2cccnc2C2(C)CC2)C2CC2)c1Cl` [I.19]: the logP in series [1] turned out to be 1.63.

`Cn1nc(C(F)F)c(C(=S)N(Cc2cccnc2C2(C)CC2)C2CC2)c1F` [I.20] showed a logP in series [1] of 1.53. The logP values of the last two compounds are within 0.2 log units of each other.

`Cc1cnc(C2(C)CC2)c(CN(C(=S)c2c(C(F)F)nn(C)c2Cl)C2CC2)c1` [I.21] displayed a lipophilicity (logP) in series [1] of 1.69.

Compound `Cc1cnc(C2(C)CC2)c(CN(C(=S)c2c(C(F)F)nn(C)c2F)C2CC2)c1` [I.22] showed a logP in series [1] of 1.59.

`Cn1nc(C(F)F)c(C(=S)N(Cc2cc(Cl)cnc2C2(C)CC2)C2CC2)c1F` [I.23] returned a logP in series [1] of 3.52.

`Cn1nc(C(F)F)c(C(=S)N(Cc2cc(Cl)cnc2C2(C)CC2)C2CC2)c1Cl` [I.24]: the lipophilicity (logP) in series [1] was determined as 3.71.

With `Cn1nc(C(F)F)c(C(=S)N(Cc2sccc2C2(Cl)CC2)C2CC2)c1Cl` [I.25], in series [1], the logP is 4.19.

In the case of `Cc1cc(C2(Cl)CC2)c(CN(C(=S)c2c(C(F)F)nn(C)c2Cl)C2CC2)s1` [I.26], the log partition coefficient (logP) in series [1] came to 4.56.

On to `Cn1nc(C(F)F)c(C(=S)N(Cc2sccc2C2(C)CC2)C2CC2)c1Cl` [I.27], for which the log partition coefficient (logP) in series [1] turned out to be 4.44.

For `Cn1nc(C(F)F)c(C(=S)N(Cc2sccc2C2(C)CC2)C2CC2)c1F` [I.28], the logP in series [1] stood at 4.28.

In series [1], `Cn1nc(C(F)F)c(C(=O)N(Cc2cc(C3=CCCC3)cnc2C2(C)CC2)C2CC2)c1F` [I.29] returned a lipophilicity (logP) of 2.05.

In the case of `Cn1nc(C(F)F)c(C(=O)N(Cc2cc(-c3ccsc3)cnc2C2(C)CC2)C2CC2)c1F` [I.30], the log partition coefficient (logP) in series [1] came to 2.12.

Turning to `Cn1nc(C(F)F)c(C(=O)N(Cc2cc(-c3ccccc3)cnc2C2(C)CC2)C2CC2)c1Cl` [I.31], the logP in series [1] is 2.33.

Regarding `C=Cc1cnc(C2(C)CC2)c(CN(C(=O)c2c(C(F)F)nn(C)c2Cl)C2CC2)c1` [I.32], in series [1], the logP is reported as 1.91.

In series [1], `CC1(c2ccsc2CNC2CC2)CC1` [IIa.01, N-{[3-(1-methylcyclopropyl)-2-thienyl]methyl}cyclopropanamine] yielded a chromatographic logP of 0.7.

On to `ClC1(c2ccsc2CNC2CC2)CC1` [IIa.02, N-{[3-(1-chlorocyclopropyl)-2-thienyl]methyl}cyclopropanamine], for which the chromatographic logP in series [1] is 0.87.

Compound `Cc1cc(C2(Cl)CC2)c(CNC2CC2)s1` [IIa.03, N-{[3-(1-chlorocyclopropyl)-5-methyl-2-thienyl]methyl}cyclopropanamine] had a chromatographic logP in series [1] of 1.2.

In turn, `COC1(c2cc(C)sc2CNC2CC2)CC1` [IIa.04, N-{[3-(1-methoxycyclopropyl)-5-methyl-2-thienyl]methyl}cyclopropanamine] yielded a chromatographic logP in series [1] of 1.07.

`O=Cc1sccc1C1(Cl)CC1` [IV.01, 3-(1-chlorocyclopropyl)thiophene-2-carbaldehyde] displayed a chromatographic logP in series [1] of 2.41.

Compound `Cc1cc(C2(Cl)CC2)c(C=O)s1` [IV.02, 3-(1-chlorocyclopropyl)-5-methylthiophene-2-carbaldehyde] yielded a chromatographic logP in series [1] of 2.75.

Turning to `CC1(c2ccsc2CBr)CC1` [Va1.01, 2-(bromomethyl)-3-(1-methylcyclopropyl)thiophene], the chromatographic logP in series [1] amounted to 2.14.

In the case of `Cc1cc(C2(C)CC2)c(CBr)s1` [Va1.02, 2-(bromomethyl)-5-methyl-3-(1-methylcyclopropyl)thiophene], the chromatographic logP in series [1] came out at 2.54.

On to `CC1(c2ccsc2CO)CC1` [Vc.01, [3-(1-methylcyclopropyl)-2-thienyl]methanol], for which the chromatographic logP in series [1] was determined as 2.09.

`Cc1cc(C2(C)CC2)c(CO)s1` [Vc.02, [5-methyl-3-(1-methylcyclopropyl)-2-thienyl]methanol] yielded a chromatographic logP in series [1] of 2.52.

Regarding `N#CC1(c2ccsc2CO)CC1` [Vc.03, 1-[2-(hydroxymethyl)-3-thienyl]cyclopropanecarbonitrile], in series [1], the chromatographic logP is 0.63.
